Measurements reported in ChEMBL document CHEMBL1909046, “DrugMatrix in vitro pharmacology data”.

Legend:
[1] = DRUGMATRIX: Imidazoline I2, Central radioligand binding (ligand: [3H] Idazoxan); assay type: cell membranes, Rattus norvegicus, Wistar, Cerebral cortex, Membrane; settings: Not Active = under 50% inhibition at 10 µM
[2] = DRUGMATRIX: Tumor Necrosis Factor (TNF), Non-Selective radioligand binding (ligand: [125I] TNF-alpha); assay type: cell membranes, Membrane; settings: u-937; Not Active = under 50% inhibition at 10 µM
[3] = DRUGMATRIX: Sodium/nucleoside co-transporter radioligand binding (ligand: nitrobenzylthioinosine); assay type: cell membranes, Cavia porcellus, Dunkin-Hartley, Cerebral cortex, Membrane; settings: Not Active = under 50% inhibition at 10 µM
[4] = molecular target: Cytochrome P450 2C19 (Homo sapiens, UniProt P33261); settings: bti-tn-5b1-4; note: in other assays of this panel Not Active means under 50% inhibition at 10 µM
Cytochrome P450 2C19, sequence (P33261 whole entry): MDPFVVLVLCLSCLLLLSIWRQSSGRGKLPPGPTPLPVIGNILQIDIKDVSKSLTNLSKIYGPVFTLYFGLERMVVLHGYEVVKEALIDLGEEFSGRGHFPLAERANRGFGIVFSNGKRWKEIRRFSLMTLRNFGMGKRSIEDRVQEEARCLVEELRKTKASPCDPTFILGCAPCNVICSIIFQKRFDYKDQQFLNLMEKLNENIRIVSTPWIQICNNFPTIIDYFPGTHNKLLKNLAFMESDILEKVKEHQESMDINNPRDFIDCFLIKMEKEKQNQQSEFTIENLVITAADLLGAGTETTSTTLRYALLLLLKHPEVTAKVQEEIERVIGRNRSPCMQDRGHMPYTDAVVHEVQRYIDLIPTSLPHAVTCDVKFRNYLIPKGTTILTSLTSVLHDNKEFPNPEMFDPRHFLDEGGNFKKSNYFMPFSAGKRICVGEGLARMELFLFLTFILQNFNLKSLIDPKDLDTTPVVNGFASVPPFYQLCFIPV

[5] = molecular target: Cytochrome P450 2D6 (Homo sapiens, UniProt P10635); settings: bti-tn-5b1-4; note: in other assays of this panel Not Active means under 50% inhibition at 10 µM
Cytochrome P450 2D6, sequence (P10635 whole entry): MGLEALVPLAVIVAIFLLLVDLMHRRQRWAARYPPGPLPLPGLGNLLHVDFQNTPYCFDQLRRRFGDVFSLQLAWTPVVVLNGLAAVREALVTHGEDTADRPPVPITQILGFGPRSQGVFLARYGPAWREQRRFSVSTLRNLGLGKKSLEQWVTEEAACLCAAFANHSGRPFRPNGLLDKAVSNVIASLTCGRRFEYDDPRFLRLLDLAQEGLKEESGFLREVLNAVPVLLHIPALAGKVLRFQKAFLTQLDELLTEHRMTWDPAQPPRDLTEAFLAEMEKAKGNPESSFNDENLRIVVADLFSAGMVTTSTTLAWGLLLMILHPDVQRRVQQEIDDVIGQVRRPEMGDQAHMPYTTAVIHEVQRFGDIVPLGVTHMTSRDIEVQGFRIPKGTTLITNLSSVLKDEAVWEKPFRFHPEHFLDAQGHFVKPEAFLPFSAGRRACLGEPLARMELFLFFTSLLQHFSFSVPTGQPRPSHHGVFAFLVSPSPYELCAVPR

[6] = molecular target: T1, Alpha-1B adrenergic receptor (Rattus norvegicus, UniProt P15823); experiment: DRUGMATRIX: Alpha-1B adrenergic receptor radioligand binding (ligand: prazosin); assay type: cell membranes, Wistar, Liver, Membrane; settings: Not Active = under 50% inhibition at 10 µM
T1 sequence (P15823 whole entry): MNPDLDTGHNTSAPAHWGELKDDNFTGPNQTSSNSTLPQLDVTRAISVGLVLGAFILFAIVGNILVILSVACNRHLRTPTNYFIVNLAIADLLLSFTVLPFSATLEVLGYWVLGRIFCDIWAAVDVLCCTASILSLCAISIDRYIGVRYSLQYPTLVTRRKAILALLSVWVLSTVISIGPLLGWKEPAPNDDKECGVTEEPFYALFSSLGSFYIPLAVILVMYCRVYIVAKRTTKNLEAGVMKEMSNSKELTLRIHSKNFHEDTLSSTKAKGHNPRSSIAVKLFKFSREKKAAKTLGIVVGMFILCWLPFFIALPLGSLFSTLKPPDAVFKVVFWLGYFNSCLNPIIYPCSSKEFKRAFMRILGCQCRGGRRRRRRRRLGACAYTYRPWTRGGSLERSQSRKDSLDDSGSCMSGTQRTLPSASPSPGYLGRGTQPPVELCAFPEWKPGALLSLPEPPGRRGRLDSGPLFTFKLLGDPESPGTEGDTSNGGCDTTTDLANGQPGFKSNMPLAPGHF

[7] = molecular target: Melanocortin receptor 3 (Homo sapiens, UniProt P41968); assay type: cell membranes, HEK293, Membrane; settings: hek293; note: in other assays of this panel Not Active means under 50% inhibition at 10 µM
Melanocortin receptor 3, sequence (P41968 whole entry): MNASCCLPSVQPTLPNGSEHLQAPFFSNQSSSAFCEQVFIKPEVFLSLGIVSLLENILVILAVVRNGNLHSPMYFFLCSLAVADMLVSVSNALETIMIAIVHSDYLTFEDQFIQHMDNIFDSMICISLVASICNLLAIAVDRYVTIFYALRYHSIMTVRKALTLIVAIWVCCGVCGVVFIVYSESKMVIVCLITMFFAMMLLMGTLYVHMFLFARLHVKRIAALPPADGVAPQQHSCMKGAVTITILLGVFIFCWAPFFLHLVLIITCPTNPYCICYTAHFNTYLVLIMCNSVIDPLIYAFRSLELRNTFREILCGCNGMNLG

[8] = molecular target: Cytochrome P450 2E1 (Homo sapiens, UniProt P05181); settings: bti-tn-5b1-4; note: in other assays of this panel Not Active means under 50% inhibition at 10 µM
Cytochrome P450 2E1, sequence (P05181 whole entry): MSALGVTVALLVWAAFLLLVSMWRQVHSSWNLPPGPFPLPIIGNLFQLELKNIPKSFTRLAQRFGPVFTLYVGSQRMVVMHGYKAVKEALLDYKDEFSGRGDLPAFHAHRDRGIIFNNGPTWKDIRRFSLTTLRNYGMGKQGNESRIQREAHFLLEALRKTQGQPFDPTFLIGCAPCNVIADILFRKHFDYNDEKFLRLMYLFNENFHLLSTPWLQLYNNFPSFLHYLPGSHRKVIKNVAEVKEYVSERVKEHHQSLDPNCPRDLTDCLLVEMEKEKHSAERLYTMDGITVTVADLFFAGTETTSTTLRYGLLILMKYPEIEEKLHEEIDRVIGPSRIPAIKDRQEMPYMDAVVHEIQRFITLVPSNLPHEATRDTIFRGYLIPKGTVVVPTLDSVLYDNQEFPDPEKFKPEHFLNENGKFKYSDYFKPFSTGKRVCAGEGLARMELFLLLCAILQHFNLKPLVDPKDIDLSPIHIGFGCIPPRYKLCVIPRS

LIPOPOLYSACCHARIDE E. COLI O55:B5
Not Active: IC50 [1] | Ki [1] | IC50 [2] | Ki [2] | IC50 [3] | Ki [3] | IC50 [4] | Ki [4] | IC50 [5] | Ki [5] | IC50 [6] | Ki [6] | IC50 [7] | Ki [7] | IC50 [8] | Ki [8]
